Data taken from patent US8044211B2 (Chroma Therapeutics Ltd., priority 2006, dated 2011).

How the values were obtained:
[1] = biological target: T1, p38 MAP Kinase a (Homo sapiens, UniProt Q16539); experiment: p38 MAP Kinase activity, radiometric filter-binding assay (Upstate); format: biochemical; conditions: IC50 range; ATP at or close to Km; read-out: Inhibitor activity versus p38 MAPKa
T1 construct: purchased Upstate (Dundee UK)
Outline: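 Human p38 MAP kinase α (5-10 mU) with 0.33 mg/mL myelin basic protein, 25 mM Tris pH 7.5, 0.002 mM EGTA, 10 mM Mg acetate and [γ-33P]ATP at or near Km; 40 min at RT. Phosphoric acid stop, P30 filter binding and scintillation counting; IC50 from 9-step ⅓-log dilutions from 10 μM top concentration, duplicates.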

[2] = test system: THP-1 TNFα release; experiment: LPS-stimulation of THP-1 cells, TNF-α by ELISA; format: cell-based; conditions: Homo sapiens, THP-1; IC50 range; LPS 1 μg/ml, 6 hrs; read-out: Inhibitor activity versus THP-1 TNFα release
Outline: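 THP-1 cells (4×10^4/well) rested 16 h, preincubated 2 h with inhibitor, then stimulated with 1 μg/ml E. coli LPS for 6 h at 37 °C, 5% CO2. TNF-α quantified in cell-free supernatants by sandwich ELISA.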

[3] = test system: human whole blood TNFα release; experiment: LPS-stimulation of human whole blood, TNF-α by ELISA; format: cell-based; conditions: IC50 range, LPS 100 ng/ml, 6 hrs, read-out: Inhibitor activity versus human whole blood TNFα release
Experimental: Whole blood was taken by venous puncture using heparinised vacutainers (Becton Dickinson) and diluted in an equal volume of RPMI 1640 tissue culture media (Sigma). 100 μl was plated in V-bottomed 96 well tissue culture treated plates. 2 hrs after the addition of the inhibitor in 100 μl of RPMI 1640 media, the blood was stimulated with LPS (E. coli strain 005:B5, Sigma) at a final concentration of 100 ng/ml and incubated at 37° C. in 5% CO2 for 6 hrs. TNF-α levels were measured from cell-free supernatants by sandwich ELISA (R&D Systems #QTA00B)

T1 sequence (Q16539 whole entry): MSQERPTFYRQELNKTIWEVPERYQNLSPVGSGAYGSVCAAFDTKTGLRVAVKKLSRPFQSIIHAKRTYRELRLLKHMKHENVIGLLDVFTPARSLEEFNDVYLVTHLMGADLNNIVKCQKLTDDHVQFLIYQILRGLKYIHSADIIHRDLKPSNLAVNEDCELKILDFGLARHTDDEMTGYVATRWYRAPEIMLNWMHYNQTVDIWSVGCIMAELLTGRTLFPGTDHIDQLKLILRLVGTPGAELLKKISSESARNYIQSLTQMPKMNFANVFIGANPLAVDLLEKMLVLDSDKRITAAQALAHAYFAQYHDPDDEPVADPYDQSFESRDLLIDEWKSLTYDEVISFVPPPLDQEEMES

| IC50 [1] [nM] | IC50 [2] [nM] | IC50 [3] [nM] | SMILES |
| --- | --- | --- | --- |
| 100 to 1000 | < 100 | 100 to 1000 | CC(C)C[C@H](NCCc1ccc(-n2c(N)c(C(=O)c3ccc(F)cc3)ccc2=O)cc1)C(=O)OC1CCCC1 [Example 57, Cyclopentyl N-[2-(4-{6-amino-5-[(4-fluorophenyl)carbonyl]-2-oxopyridin-1(2H)-yl}phenyl)ethyl]-L-leucinate] |
| 100 to 1000 | < 100 | > 1000 | Nc1c(C(=O)c2ccc(F)cc2F)ccc(=O)n1-c1c(F)cc(OCCCN[C@@H](C(=O)OC2Cc3ccccc3C2)c2ccccc2)cc1F [Example 41, 2,3-dihydro-1H-inden-2-yl (2R)-[(3-{4-[6-amino-5-(2,4-difluorobenzoyl)-2-oxopyridin-1(2H)-yl]-3,5-difluorophenoxy}propyl)amino](phenyl)acetate] |
| < 100 | < 100 | 100 to 1000 | CC(C)C[C@H](NCCCOc1cc(F)c(-n2c(N)c(C(=O)c3ccc(F)cc3F)ccc2=O)c(F)c1)C(=O)OCCN1CCOCC1 [Example 47, 2-Morpholin-4-ylethyl N-(3-{4-[6-amino-5-(2,4-difluorobenzoyl)-2-oxopyridin-1(2H)-yl]-3,5-difluorophenoxy}propyl)-L-leucinate] |
| < 100 | < 100 | > 1000 | CC(C)C[C@H](NCCCOc1cc(F)c(-n2c(N)c(C(=O)c3ccc(F)cc3)ccc2=O)c(F)c1)C(=O)OC1CCCC1 [Example 15] |
| < 100 | 100 to 1000 | > 1000 | CC(C)C[C@H](NCc1ccc(-n2c(N)c(C(=O)c3ccc(F)cc3F)ccc2=O)cc1)C(=O)OC1CCCC1 [Example 9, Cyclopentyl(S)-2-{4-[6-Amino-5-(2,4-difluorobenzoyl)-2-oxo-2H-pyridin-1-yl]benzylamino}-4-methylpentanoate] |
| < 100 | < 100 | 100 to 1000 | CC(C)C[C@H](NCCCCCOc1cc(F)c(-n2c(N)c(C(=O)c3ccc(F)cc3F)ccc2=O)c(F)c1)C(=O)OC1CCCC1 [Example 53, Cyclopentyl N-(5-{4-[6-amino-5-(2,4-difluorobenzoyl)-2-oxopyridin-1(2H)-yl]-3,5-difluorophenoxy}pentyl)-L-leucinate] |
| 100 to 1000 | < 100 | 100 to 1000 | CC(C)C[C@H](NCCCOc1cc(F)c(-n2c(N)c(C(=O)c3ccc(F)cc3F)ccc2=O)c(F)c1)C(=O)OCCN(C)C [Example 46, 2-(Dimethylamino)ethyl N-(3-{4-[6-amino-5-(2,4-difluorobenzoyl)-2-oxopyridin-1(2H)-yl]-3,5-difluorophenoxy}propyl)-L-leucinate] |
| < 100 | 100 to 1000 | > 1000 | CC(C)C[C@H](NCCCOc1ccc(-n2c(N)c(C(=O)c3ccc(F)cc3)ccc2=O)cc1)C(=O)OC1CCCC1 [Example 25, Cyclopentyl(S)-2-(3-{4-[6-Amino-5-(4-fluorobenzoyl)-2-oxo-2H-pyridin-1-yl]phenoxy}propylamino)-4-methylpentanoate] |

Continued, compound first:

| SMILES | IC50 [1] [nM] | IC50 [2] [nM] | IC50 [3] [nM] |
| --- | --- | --- | --- |
| NCC[C@H](NCCCOc1cc(F)c(-n2c(N)c(C(=O)c3ccc(F)cc3F)ccc2=O)c(F)c1)C(=O)OC1CCCC1 [Example 52, Cyclopentyl(2S)-4-amino-2-[(3-{4-[6-amino-5-(2,4-difluorobenzoyl)-2-oxopyridin-1(2H)-yl]-3,5-difluorophenoxy}propyl)amino]butanoate] | < 100 | < 100 | 100 to 1000 |
| CC(C)C[C@H](NCc1ccc(-n2c(N)c(C(=O)c3ccc(F)cc3)ccc2=O)cc1)C(=O)OC1CCCC1 [Example 3, Cyclopentyl(S)-2-{4-[6-Amino-5-(4-fluorobenzoyl)-2-oxo-2H-pyridin-1-yl]benzylamino}-4-methylpentanoate] | 100 to 1000 | > 1000 | > 1000 |
| Cc1cc(C(=O)c2ccc(=O)n(-c3ccc(OCCCN[C@@H](CC(C)C)C(=O)OC4CCCC4)cc3)c2N)ccc1F [Example 27, Cyclopentyl(S)-2-(3-{4-[6-Amino-5-(4-fluoro-3-methylbenzoyl)-2-oxo-2H-pyridin-1-yl]phenoxy}propylamino)-4-methylpentanoate] | 100 to 1000 | 100 to 1000 | > 1000 |
| Nc1c(C(=O)c2ccc(F)cc2F)ccc(=O)n1-c1c(F)cc(OCCCN[C@@H](C(=O)OC2CCCC2)c2ccccc2)cc1F [Example 42, Cyclopentyl (2R)-[(3-{4-[6-amino-5-(2,4-difluorobenzoyl)-2-oxopyridin-1 (2H)-yl]-3,5-difluorophenoxy}propyl)amino](phenyl)acetate] | < 100 | < 100 | 100 to 1000 |
| CC(C)C[C@H](NCCCOc1cc(F)c(-n2c(N)c(C(=O)c3ccc(F)cc3F)ccc2=O)c(F)c1)C(=O)OC(C)(C)C [Example 38, tert-Butyl(S)-2-(3-{4-[6-Amino-5-(2,4-difluorobenzoyl)-2-oxo-2H-pyridin-1-yl]-3,5-difluorophenoxy}propylamino)-4-methyl pentanoate] | < 100 | < 100 | > 1000 |
| CC(C)C[C@H](NCc1cc(F)c(-n2c(N)c(C(=O)c3ccc(F)cc3F)ccc2=O)c(F)c1)C(=O)OC1CCCC1 [Example 11] | < 100 | 100 to 1000 | > 1000 |
| Cc1cc(C(=O)c2ccc(=O)n(-c3c(F)cc(OCCCN[C@@H](CC(C)C)C(=O)OC4CCCC4)cc3F)c2N)ccc1F [Example 19, Cyclopentyl(S)-2-(3-{4-[6-Amino-5-(4-fluoro-3-methylbenzoyl)-2-oxo-2H-pyridin-1-yl]-3,5-difluorophenoxy}propylamino)-4-methylpentanoate] | < 100 | < 100 | > 1000 |
| Nc1c(C(=O)c2ccc(F)cc2F)ccc(=O)n1-c1c(F)cc(OCCCN[C@H](C(=O)OC2CCCC2)C2CCCCC2)cc1F [Example 48, Cyclopentyl(2S)-[(3-{4-[6-amino-5-(2,4-difluorobenzoyl)-2-oxopyridin-1(2H)-yl]-3,5-difluorophenoxy}propyl)amino](cyclohexyl)acetate] | < 100 | < 100 | > 1000 |
| CC(C)C[C@H](NCCCOc1cc(F)c(-n2c(N)c(C(=O)c3ccc(F)cc3F)ccc2=O)c(F)c1)C(=O)OC1CCCC1 [Example 22, Cyclopentyl(S)-2-(3-{4-[6-Amino-5-(2,4-difluorobenzoyl)-2-oxo-2H-pyridin-1-yl]-3,5-difluorophenoxy}propylamino)-4-methyl pentanoate] | < 100 | < 100 | 100 to 1000 |
| CC(C)C[C@H](NCCc1ccc(-n2c(N)c(C(=O)c3ccc(F)cc3)ccc2=O)cc1)C(=O)OC(C)(C)C [Example 58, tert-Butyl N-[2-(4-{6-amino-5-[(4-fluorophenyl)carbonyl]-2-oxopyridin-1(2H)-yl}phenyl)ethyl]-L-leucinate] | 100 to 1000 | < 100 | 100 to 1000 |
